# Read-outs that look alike come from different tables or passages of the source.
# How the values were obtained:
# [1] = Iron excretion (urine and stool) by hypertransfused iron-overloaded rats; assay type: in vivo, Sprague-Dawley rats; details: for Iron excreted, GROSS Stool / Iron excreted, GROSS Urine / Iron excreted, GROSS Stool, per μmole / Iron excreted, GROSS Urine, per μmole / Iron excreted, NET Stool, per μmole / Iron excreted, NET TOTAL, per μmole / Iron excreted, NET Urine, per μmole / Iron excreted, NET Stool / Iron excreted, NET Urine: 100 mg/kg; for Iron excreted, GROSS Stool, per μmole / Iron excreted, GROSS Urine, per μmole / Iron excreted, NET Stool, per μmole / Iron excreted, NET TOTAL, per μmole / Iron excreted, NET Urine, per μmole: normalized to molar dose; for circulation time relative to DFO: intraperitoneal, inferred from increased urinary iron excretion; for absorption and cleavage after oral administration: inferred from net iron excretion; for Iron excreted, NET Stool / Iron excreted, NET Urine: gross minus background
# Experimental: In this model, heat-damaged rat erythrocytes are transfused intraperitoneally (i.p.) on a daily basis.
# Deferoxamine mesylate (DFO:Desferal) was obtained from the Ciba Pharmaceutical Company (Summit, N.J.) as a lyophilized powder. For administration to the hypertransfused rats, it was dissolved in physiological saline at a concentration of 10 mg/ml.
# A homogeneous solution of acylated derivative was obtained by dissolving the drugs in propylene glycol at a concentration of 30 mg/ml.
# Sprague-Dawley rats (60-80 g; Taconic Farms, Germantown, N.Y. (were iron overloaded via daily (5 days/week) intraperitoneal injections of heat-damaged rat erythrocytes. The red blood cells for infusion were purchased from Hilltop Lab Animals, Inc. (Scottsdale, Pa.). They were obtained from retired breeders, the donor animals being exsanguinated via cardiac puncture under CO2 anesthesia. The blood drawn into acid-citrate-dextrose containing gentamicin sulfate (25 g/ml) and shipped on wet ice by overnight express to the testing laboratory. Upon arrival the blood was stored at 4° C. for up to 7 days. Prior to infusion the red cells were slightly damaged by heating at 50° C. for 15 minutes.
# The animals were placed on a low iron diet (>10 μg of Fe/g) for one week prior to screening. […] During screening the animals were placed in individual metabolic cages and urine and stool were collected daily. The daily transfusion of heat-damaged red cells was continued throughout drug testing and during intervals of rest between drug evaluations. The compounds were administered either by gavage (orally) or by intraperitoneal injection 4 to 8 hours after the animals were transfused. The dose of each drug was 100 mg/kg/day for 5 days. Urine and stool samples were collected approximately 24 hours after drug administration. They were placed in crucibles, dried at 110° C. and then ashed at 550° C. overnight. Following dissolution of the ash in 3N HCl, the iron content of the samples was determined by atomic absorption spectroscopy.
# The iron-overloaded rats were divided into groups of six. Before testing any of the new compounds both positive and negative controls were evaluated. Baseline excretion of iron in the urine and stool of this series of hypertransfused rats was determined in the absence of drug administration (negative control). As a positive control, another group of six animals was given DFO intraperitoneally at a dose of 100 mg/kg (153 micromoles/kg). […] All of the drugs were evaluated both orally and intraperitoneally. The intraperitoneal effect was used to assess bioavailability.
# In the prodrugs, where the hydroxamic acid moieties (iron binding sites) of DFO were blocked, effectiveness upon parenteral administration would indicate that the rat is able to metabolize the prodrug to the active species. Failure to be effective orally could then be attributed to lack of absorption. […] In order to obtain an estimate of the relative iron-chelating potency within the series, the amount of iron excreted in response to the acylated derivatives was normalized to correspond to the molar equivalent of 100 mg/kg DFO.
# [2] = Solubility in water and ordinary organic solvents; assay type: physicochemical; details: in words
# [3] = cited from earlier work
# [4] = Intraperitoneal LD50 in Swiss-Webster mice; details: for LD50: mouse, in vivo, ip
# [5] = ip, 100 mg/kg, DFO (historic), n=54
SMILES,"Iron excreted, GROSS Stool ([1]; ip, acylated derivatives) [µg/kg/day]","Iron excreted, GROSS Urine ([1]; ip, acylated derivatives) [µg/kg/day]","Iron excreted, GROSS Stool, per μmole ([1]; ip) [µg/kg/day/µmol]","Iron excreted, GROSS Urine, per μmole ([1]; ip) [µg/kg/day/µmol]","Iron excreted, NET Stool, per μmole ([1]; ip) [µg/kg/day/µmol]","Iron excreted, NET TOTAL, per μmole ([1]; ip) [µg/kg/day/µmol]","Iron excreted, NET Urine, per μmole ([1]; ip) [µg/kg/day/µmol]","Iron excreted, GROSS Stool ([1]; po) [µg/kg/day]","Iron excreted, GROSS Urine ([1]; po) [µg/kg/day]","Iron excreted, GROSS Stool, per μmole ([1]; po) [µg/kg/day/µmol]","Iron excreted, GROSS Urine, per μmole ([1]; po) [µg/kg/day/µmol]","Iron excreted, NET Stool, per μmole ([1]; po) [µg/kg/day/µmol]","Iron excreted, NET TOTAL, per μmole ([1]; po) [µg/kg/day/µmol]","Iron excreted, NET Urine, per μmole ([1]; po) [µg/kg/day/µmol]",circulation time relative to DFO [1],absorption and cleavage after oral administration ([1]; oral),also measured
"CCCCCCCCCCCCCC(=O)NCCCCCN(OC(=O)CC)C(=O)CCC(=O)NCCCCCN(OC(=O)CC)C(=O)CCC(=O)NCCCCCN(OC(=O)CC)C(C)=O [MDP3, N-Myristoyl-O,O,O-tripropionyl deferoxamine]",434,134,4.06,1.25,1.88,2.62,0.74,551,88,5.15,0.82,2.97,3.28,0.31,–,–,"increase of potency (absorption) on lengthening N-terminal amide from 3 to 14 carbons ([1]; oral, MDP3 vs PDP3): two-thirds"
"CCCCCCCC(=O)ON(CCCCCNC(=O)CCC(=O)N(CCCCCNC(=O)CCC(=O)N(CCCCCN(C(C)=O)C(=O)CCCCCCC)OC(=O)CCCCCCC)OC(=O)CCCCCCC)C(C)=O [N-acetyl-N-octanoyl-O,O,O-trioctanoyldeferoxamine]",–,–,–,–,–,–,–,–,–,–,–,–,–,–,–,–,"increase of absorption on adding an N-acyl group ([1]; oral, vs N-acetyl-O,O,O-trioctanoyldeferoxamine, earlier unpublished data): about 50%"
"CCCC(=O)NCCCCCN(OC(=O)CCC)C(=O)CCC(=O)NCCCCCN(OC(=O)CCC)C(=O)CCC(=O)NCCCCCN(OC(=O)CCC)C(C)=O [BDB3, N-Butyroyl-O,O,O-tributyryl deferoxamine]",875,174,7.35,1.46,5.17,6.12,0.95,507,91,4.26,0.76,2.08,2.33,0.25,circulate for a longer period of time than DFO,efficiently absorbed and subsequently cleaved,–
"CCCCCCCC(=O)NCCCCCN(O)C(=O)CCC(=O)NCCCCCN(O)C(=O)CCC(=O)NCCCCCN(O)C(C)=O [N-octanoyl-O,O,O-trihydrogendeferoxamine]",–,–,–,–,–,–,–,–,–,–,–,–,–,–,–,–,solubility in water and ordinary organic solvents [2]: sparingly soluble
"CC(=O)N(O)CCCCCNC(=O)CCC(=O)N(O)CCCCCNC(=O)CCC(=O)N(O)CCCCCN [DFO, N'-[5-[[4-[[-5-(acetylhydroxamino)pentyl]amino]-1,4-dioxobutyl]hydroxyamino]pentyl]-N-(5-aminopentyl)-N-hydroxybutanediamide, reference compound]",–,–,5.60,1.18,3.42,4.09,0.67,398,98,2.60,0.64,0.03,0.06,0.03,–,–,"Iron excreted, NET Stool ([1]; ip, DFO (historic)): 465 µg/kg/day; Iron excreted, NET Urine ([1]; ip, DFO (historic)): 87 µg/kg/day; Iron excreted, NET Stool ([1]; po): 6 µg/kg/day; Iron excreted, NET Urine ([1]; po): 5 µg/kg/day; Iron excreted, GROSS Stool [3, 5]: 857 µg/kg/day; Iron excreted, GROSS Urine [3, 5]: 180 µg/kg/day; effectiveness of oral relative to parenteral administration ([3]; oral vs parenteral, historical data): less than 10%; LD50 [4]: 800 mg/kg"
"CCC(=O)NCCCCCN(OC(=O)CC)C(=O)CCC(=O)NCCCCCN(OC(=O)CC)C(=O)CCC(=O)NCCCCCN(OC(=O)CC)C(C)=O [PDP3, N-Propionyl-O,O,O-tripropionyl deferoxamine]",933,179,7.29,1.40,5.11,6.00,0.89,496,99,3.88,0.77,1.70,1.96,0.26,circulate for a longer period of time than DFO,efficiently absorbed and subsequently cleaved,–
"CCCCC(=O)NCCCCCN(OC(=O)CCCC)C(=O)CCC(=O)NCCCCCN(OC(=O)CCCC)C(=O)CCC(=O)NCCCCCN(OC(=O)CCCC)C(C)=O [VDV3, N-Valeroyl-O,O,O-trivaleroyl deferoxamine]",966,184,8.63,1.64,6.45,7.58,1.13,599,133,5.35,1.19,3.17,3.85,0.68,circulate for a longer period of time than DFO,efficiently absorbed and subsequently cleaved,"relative activity among derivatives tested ([1]; in words): most active derivative tested; iron excretion relative to oral DFO ([1]; oral, vs DFO given orally): more than 60 times; systemic toxicity ([4]; in words): lack of systemic toxicity; LD50 [4]: 800 mg/kg"
